This is an account of results in patent US20170027938A1, “Combination” (Novartis AG, priority 2011, published 2017).

The test system of this assay is 231/LM2-4 human breast cancer cells. Put plainly: Advanced metastatic breast cancer model (231/LM2-4), survival after primary tumor resection. It counts as in vivo, CB-17 SCID mice. The settings on record: for Median survival: therapy initiated 19 days after resection. The source says:
The original cell line, MDA-MB 231, was a gift from Dr. Jeffrey F. Lemontt in September, 1989, together with other variants of this cell line. Cell line 231/LM2-4 (human breast cancer cells) used in the study was derived by one of the inventors as described in Munoz R, Man S, Shaked Y, et al. Highly efficacious non-toxic treatment for advanced metastatic breast cancer using combination UFT-cyclophosphamide metronomic chemotherapy, Cancer Res 2006; 66:3386-91.
Two million 231/LM2-4 human breast cancer cells were implanted into the mammary fat pad of 6-8 week old female CB-17 SCID mice purchased from Charles River Canada. Twenty days later when tumor volumes were approximately 400 mm^3, the primary tumors were surgically resected. Therapy was initiated 19 days after resection when visceral metastases were established in sites such as lung and liver. Mice were randomized into groups of 4 and treated as follows: 1) Control—vehicle; 2) Low dose metronomic oral topotecan; 3) pazopanib; 4) Low dose metronomic oral topotecan+pazopanib; 5) Maximum tolerated dose topotecan; and 6) maximum tolerated dose topotecan+pazopanib. The schedule and doses of drugs used were metronomic oral topotecan 1 mg/kg/d by gavage, maximum tolerated dose topotecan 1.5 mg/kg by gavage for 5 consecutive days followed by 16 days break ip, pazopanib 150 mg/kg/d by gavage, and control mice were given the topotecan vehicle and/or pazopanib vehicle. The oral topotecan and pazopanib preparations were mixed just prior to administration to avoid possible drug interaction. Institutional guidelines for survival endpoint were followed.

As for `CC[C@@]1(O)C(=O)OCc2c1cc1n(c2=O)Cc2cc3c(CN(C)C)c(O)ccc3nc2-1` [topotecan, (S)-10-[(dimethylamino)methyl]-4-ethyl-4,9-dihydroxy-1H-pyrano[3′,4′:6,7]indolizino [1,2-b]quinoline-3,14-(4H,12H)-dione], for the setting “LDM oral topotecan alone, 1 mg/kg/d by gavage”, the “Survival benefit compared to control untreated mice (FIG. 1)” value is on record as “neither low dose metronomic (LDM) oral topotecan alone nor pazopanib alone had any survival benefit”. In addition, the Median survival amounted to 56 days (low dose metronomic (LDM) oral topotecan alone, 1 mg/kg/d by gavage) and 63 days (maximum tolerated dose (MTD) topotecan 1.5 mg/kg for 5 consecutive days followed by 16 days break).
